Test results: ChEMBL document CHEMBL1126328, “The rotenoid core structure: Modifications to define the requirements of the toxophore” (Bioorg Med Chem Lett, 1992)

Tests used:
[1] = Inhibition of NADH dehydrogenase in blowfly flight-muscle submitochondrial preparation; format: tissue-based, Muscle tissue
Phormia regina = test: Relative activity against blowfly flight muscle submitochondrial NADH dehydrogenase compared to rotenone; conditions: Muscle tissue
[2] = Inhibition of NADH dehydrogenase in blowfly flight-muscle submitochondrial preparation experiment I; format: tissue-based, Phormia regina, Muscle tissue
[3] = Inhibition of NADH dehydrogenase in blowfly flight-muscle submitochondrial preparation experiment II; design: species or system Phormia regina, Muscle tissue

SMILES | IC50 [1] | Relative activity (Phormia regina) | IC50 [2] | IC50 [3]
C=C(C)[C@H]1CC2=C(Cc3ccc4c(c3C2)O[C@@H]2COc3cc(OC)c(OC)cc3[C@@H]2C4=O)O1 |  | 100% | 0.25 nM | 1.5 nM
COc1ccc2c(c1)O[C@@H]1COc3cc(OC)c(OC)cc3[C@@H]1C2=O [MUNDOSERONE] | 15 nM | 1.67% |  | 
COc1cc2c(cc1OC)[C@@H]1[C@H](O)c3ccc4c(c3O[C@@H]1CO2)Cc1cc(C(C)C)oc1C4 | 25 nM | 1% |  | 
COc1cc2c(cc1OC)[C@H]1C(=O)c3ccc4c(c3O[C@@H]1CO2)Cc1cc(C(C)C)oc1C4 | 5 nM | 30% |  | 
COc1cc2c(cc1OC)[C@H]1[C@H](O)c3ccc4c(c3O[C@@H]1CO2)Cc1cc(C(C)C)oc1C4 | 400 nM | 0.063% |  | 
COc1cc2c(cc1OC)[C@@H]1C(=O)c3ccc4c(c3O[C@@H]1CO2)Cc1cc(C(C)C)oc1C4 | 2 nM | 75% |  | 
COc1cc2c(cc1OC)[C@@H]1C(=O)c3ccccc3O[C@@H]1CO2 | 200 nM | 0.125% |  | 

The remaining compounds from weak to strong by IC50 [1], led by results:

IC50 [1] | Relative activity (Phormia regina) | IC50 [2] | IC50 [3] | SMILES
10000 nM | 0.0025% |  |  | O=C1c2ccccc2O[C@@H]2CSc3ccccc3[C@H]12
8000 nM | 0.0031% |  |  | COc1ccc2c(c1)O[C@@H]1COc3ccccc3[C@@H]1C2=O
5000 nM | 0.005% |  |  | O=C1c2ccccc2O[C@@H]2COc3ccccc3[C@H]12
300 nM | 0.083% |  |  | COc1cc2c(cc1OC)[C@@H]1C(=O)c3ccccc3O[C@@H]1CS2
0.5 nM | 50% |  |  | C=C(C)[C@H]1CC2=C(Cc3ccc4c(c3C2)O[C@@H]2COc3cc(OC)c(OC)cc3[C@H]2C4=O)O1
